Several values for one entry are separate records, joined by “and”; a condition that tells them apart may be missing. Equal values may be shown once.
Experiments:
[1] = tested on: adult houseflies (Musca domestica); test: Musca domestica test (MUSCDO); type: in vivo; settings: application rate 100 ppm; after 2 days
Procedure, shortened: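 Compound dissolved in DMSO and diluted with water to the test concentration, applied with sugar solution on a sponge; 10 adult houseflies per vessel. Mortality scored after 2 days as % kill (100% all dead, 0% none).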

[2] = tested on: green peach aphid (Myzus persicae); test: Myzus persicae spray test (MYZUPE); type: in vivo; settings: application rate 100 g/ha; Chinese cabbage leaf discs; after 6 days
Procedure, shortened: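 Chinese cabbage leaf discs infested with all aphid stages sprayed with compound in acetone/DMF with alkylaryl polyglycol ether emulsifier in water. Efficacy (% aphids killed; 100% all dead, 0% none) scored after 6 days.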

[3] = tested on: cattle ticks (Boophilus microplus) Parkhurst strain, SP-resistant; test: Boophilus microplus dip test (BOOPMI Dip); type: in vivo; settings: application rate 100 ppm, assessed after 7 days
Protocol: B. Boophilus microplus-dip Test (BOOPMI Dip)
Test animals: cattle ticks (Boophilus microplus) Parkhurst strain, SP-resistant
Solvent: dimethyl sulphoxide
10 mg of active compound are dissolved in 0.5 ml of dimethyl sulphoxide. For the purpose of preparing a suitable formulation, the active compound solution is diluted with water to the concentration desired in each case.
This active compound preparation is pipetted into tubes. 8-10 adult engorged female cattle ticks (Boophilus microplus) are transferred into a further tube with holes. The tube is immersed into the active compound formulation, and all ticks are completely wetted. After the liquid has run out, the ticks are transferred on filter discs into plastic dishes and stored in a climate-controlled room.
The activity is assessed after 7 days by laying of fertile eggs. Eggs whose fertility is not visible from the outside are stored in a climate-controlled cabinet until the larvae hatch after about 42 days. An efficacy of 100% means that none of the ticks has laid any fertile eggs; 0% means that all eggs are fertile.

[4] = tested on: bont tick nymphs (Amblyomma hebraeum); settings: after 48 h
[5] = tested on: larvae of the mustard beetle (Phaedon cochleariae); test: Phaedon cochleariae spray test (PHAECO); type: in vivo; settings: application rate 100 g/ha; Chinese cabbage leaf discs; after 7 days
Procedure, shortened: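 Compound dissolved in acetone/dimethylformamide with alkylaryl polyglycol ether emulsifier, made up in water containing 1000 ppm emulsifier, then diluted to test concentrations and sprayed against mustard beetle larvae. Efficacy (% larvae killed) scored after 7 days.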

[6] = tested on: L1 larvae of the Australian sheep blowfly (Lucilia cuprina); test: Lucilia cuprina test (LUCICU); type: in vivo; settings: application rate 100 ppm; after 2 days
Procedure, shortened: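 About 20 L1 larvae placed in a vessel with minced horsemeat plus compound (DMSO concentrate diluted with water to the desired concentration). Kill in % scored after 2 days, 100% meaning all larvae dead.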

[7] = tested on: adult cat fleas (Ctenocephalides felis); test: Ctenocephalides felis in vitro contact test with adult cat fleas (T1); settings: after 48 h
Procedure, shortened: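 Test compound was dissolved in acetone p.a. (9 mg per 1 ml) and diluted as needed. 250 μl was spread evenly over the inner walls and floor of a 25 ml test tube by rotating on an orbital shaker for 2 h at 30 rpm. Once the solvent evaporated, 5-10 adult Ctenocephalides felis were added. Tubes were capped with a perforated plastic lid and kept horizontal at room temperature and ambient humidity.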

[8] = tested on: greenhouse red spider mite (Tetranychus urticae); test: Tetranychus urticae spray test, OP-resistant (TETRUR); type: in vivo; settings: application rate 100 g/ha; bean leaf discs; after 6 days
Procedure, shortened: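 Bean leaf discs carrying all stages of OP-resistant Tetranychus urticae were sprayed with compound formulated in acetone/dimethylformamide and diluted in water with 1000 ppm alkylaryl polyglycol ether emulsifier. Mortality (% efficacy, 100% = all mites killed) scored after 6 days.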

[9] = logP determination by HPLC on a reversed-phase column (C18), EEC Directive 79/831 Annex V.A8; type: physicochemical
Procedure, shortened: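 Retention on a C18 reversed-phase column (Zorbax Eclipse Plus, 1.8 micron) was used, eluting with acetonitrile/water, each containing formic acid. The gradient ran from 10% to 95% acetonitrile over 4.25 min, then held 1.25 min, at 55° C and 2.0 ml/min, with MS detection.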

[10] = tested on: caterpillars of the armyworm (Spodoptera frugiperda); test: Spodoptera frugiperda spray test (SPODFR); type: in vivo; settings: application rate 100 g/ha; maize leaf discs; after 7 days
Procedure, shortened: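 Maize leaf discs sprayed with compound in acetone/DMF with alkylaryl polyglycol ether emulsifier (1000 ppm) in water, dried, then infested with armyworm caterpillars. Mortality (%) scored after 7 days; 100% = all caterpillars killed, 0% = none killed.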

[11] = tested on: engorged adult female cattle ticks (Boophilus microplus); test: Boophilus microplus injection test (BOOPMI Inj); type: in vivo; settings: application rate 20 μg/animal; injection into abdomen; assessed after 7 days
Procedure, shortened: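 DMSO solution of compound (1 μl) injected into the abdomen of 5 engorged adult female ticks, which are then held in a climate-controlled room. After 7 days, efficacy is scored from laying of fertile eggs, with unclear eggs kept until larval hatch (~42 days); 100% means no fertile eggs, 0% all fertile.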

[12] = tested on: adult cat fleas (Ctenocephalides felis); test: Ctenocephalides felis oral test (CTECFE); type: in vivo; settings: application rate 100 ppm in citrated cattle blood; after 2 days
Procedure, shortened: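 About 20 unfed adult cat fleas fed through parafilm membrane on citrated cattle blood containing compound (DMSO stock diluted in blood to test concentration). Kill % scored after 2 days (100% = all fleas dead).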

[13] = tested on: adult dog ticks (Rhipicephalus sanguineus); test: Rhipicephalus sanguineus in vitro contact test with adult brown dog ticks (T2); settings: after 48 h
Procedure, shortened: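 Acetone solutions coated onto test tube walls and floor, giving 5 μg/cm^2 at 900 ppm. Five to ten adult ticks held per tube in the dark at room temperature for 48 h, then heated at 45-50° C for up to 5 min; efficacy is the percentage of dead or moribund ticks unable to climb away.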

[14] = tested on: adult castor bean ticks (Ixodes ricinus); test: Ixodes ricinus in vitro contact test with adult castor bean ticks (T3); settings: application rate 5 μg/cm^2; after 48 h
Protocol: T3. Ixodes ricinus-in vitro Contact Tests with Adult Castor Bean Ticks
For the coating of the test tubes, initially 9 mg of active compound are dissolved in 1 ml of acetone p.a. and then diluted with acetone p.a. to the desired concentration. By turning and rocking on an orbital shaker (2 h of rocking rotation at 30 rpm), 250 μl of the solution are distributed homogeneously on the internal walls and the floor of a 25 ml test tube. At 900 ppm active compound solution and 44.7 cm^2 internal surface, an area dose of 5 μg/cm^2 is achieved for homogeneous distribution.
After evaporation of the solvent, the tubes are populated with 5-10 adult castor bean ticks (Ixodes ricinus), sealed with a perforated plastic lid and incubated in a horizontal position in the dark at 22° C. and 90% humidity in a climate-controlled cabinet. After 48 h, the efficacy is determined. To this end, the ticks are knocked to the floor of the tube and incubated on a hotplate at 45-50° C. for at most 5 min. Ticks which remain motionless on the floor or move in an uncoordinated manner such that they are not able to deliberately avoid the heat by climbing upwards are considered to be dead or moribund.
An efficacy of 100% means that all ticks were dead or moribund. 0% efficacy means that none of the ticks had been damaged.

[15] = HPLC on reversed-phase column (C18), acetonitrile/water with formic acid, EEC Directive 79/831 Annex V.A8

| Compound | efficacy (kill in %) [1] [%] | efficacy in % [2] [%] | efficacy (laying of fertile eggs) [3] [%] | efficacy (dead or moribund ticks) [4] | efficacy in % [5] [%] | efficacy (kill in %) [6] [%] | efficacy (dead or moribund fleas) ([7]; application rate 1 μg/cm^2) [%] | efficacy (dead or moribund fleas) ([7]; application rate 5 μg/cm^2) [%] | efficacy in % [8] [%] | logP ([9]; HPLC, reversed-phase C18, acetonitrile (0.1% formic acid)/water (0.09% formic acid) gradient) | efficacy in % [10] [%] | efficacy (laying of fertile eggs) [11] [%] | efficacy (kill in %) [12] [%] | logP [9, 15] | efficacy (dead or moribund ticks) ([13]; application rate 1 μg/cm^2) [%] | efficacy (dead or moribund ticks) ([13]; application rate 5 μg/cm^2) [%] | efficacy (dead or moribund ticks) [14] [%] |
| --- | --- | --- | --- | --- | --- | --- | --- | --- | --- | --- | --- | --- | --- | --- | --- | --- | --- |
| Cn1nc(C(F)(F)C(F)(F)F)c(C(F)(F)F)c1-n1cnc(-c2ccc(Cl)c(C(=O)NC3(C#N)CC3)c2)c1 [Ib-2] | 100 | 90 | 100 | 100% | 100 | 100 | 100 | 100 | 100 | 3.38 | 100 | 100 | 100 |  |  |  |  |
| Cn1nc(C(F)(F)C(F)(F)F)c(C(F)(F)F)c1-n1cc(-c2ccc(Cl)c(C(=O)NCc3ccccc3)c2)cn1 [Ic-3] | 100 |  |  | 100% and 80% | 100 | 100 |  |  | 90 |  | 100 | 100 | 100 | 4.39 |  |  |  |
| Cn1nc(C(F)(F)C(F)(F)F)c(C(F)(F)F)c1-n1cc(-c2cccc(C(=O)NC3CC3)c2)cn1 [Ic-18] | 100 |  |  | 100% | 100 | 100 | 100 | 100 |  |  | 100 | 100 | 100 | 3.66 | 100 | 100 | 80 |
| Cn1nc(C(F)(F)C(F)(F)F)c(C(F)(F)F)c1-n1cc(-c2cccc(C(=O)NC3(C#N)CC3)c2)cn1 [Ic-19] | 100 |  |  | 100% | 100 | 100 | 100 | 100 | 100 |  | 100 | 100 | 100 | 3.61 | 100 | 80 |  |

— US9487489B2, “Halogen-substituted pyrazole derivatives as pest-control agents” (BAYER CROPSCIENCE AKTIENGESELLSCHAFT, priority 2013, dated 2016)
